Source: ChEMBL document CHEMBL1201862, “PubChem BioAssay data set” (2004)
Each block holds one compound with its values, some of them ahead of it. Active and inactive are the calls of the source.

Columns and labels:
[1] = target: T1, Ubiquitin-conjugating enzyme E2 N (Homo sapiens, UniProt P61088); format: functional;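 also: Dose-response confirmation in a TR-FRET assay detecting UBC13-driven polyubiquitin chain formation, inhibition measured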
T1 sequence (P61088 whole entry): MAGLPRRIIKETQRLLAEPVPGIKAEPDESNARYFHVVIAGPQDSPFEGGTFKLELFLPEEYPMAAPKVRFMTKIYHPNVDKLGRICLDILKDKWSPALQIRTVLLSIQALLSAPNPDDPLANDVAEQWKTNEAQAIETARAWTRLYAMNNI

cells [2] = format: functional, cell-based
cells [3] = format: functional, cell-based; remark: listed apart in the source
Coagulation factor XII = target: T2, Coagulation factor XII (Homo sapiens, UniProt P00748); format: functional;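 also: activated factor XIIa alpha cleaving a fluorogenic AMC peptide substrate; inhibitor potency from loss of enzyme activity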
T2 sequence (P00748 whole entry): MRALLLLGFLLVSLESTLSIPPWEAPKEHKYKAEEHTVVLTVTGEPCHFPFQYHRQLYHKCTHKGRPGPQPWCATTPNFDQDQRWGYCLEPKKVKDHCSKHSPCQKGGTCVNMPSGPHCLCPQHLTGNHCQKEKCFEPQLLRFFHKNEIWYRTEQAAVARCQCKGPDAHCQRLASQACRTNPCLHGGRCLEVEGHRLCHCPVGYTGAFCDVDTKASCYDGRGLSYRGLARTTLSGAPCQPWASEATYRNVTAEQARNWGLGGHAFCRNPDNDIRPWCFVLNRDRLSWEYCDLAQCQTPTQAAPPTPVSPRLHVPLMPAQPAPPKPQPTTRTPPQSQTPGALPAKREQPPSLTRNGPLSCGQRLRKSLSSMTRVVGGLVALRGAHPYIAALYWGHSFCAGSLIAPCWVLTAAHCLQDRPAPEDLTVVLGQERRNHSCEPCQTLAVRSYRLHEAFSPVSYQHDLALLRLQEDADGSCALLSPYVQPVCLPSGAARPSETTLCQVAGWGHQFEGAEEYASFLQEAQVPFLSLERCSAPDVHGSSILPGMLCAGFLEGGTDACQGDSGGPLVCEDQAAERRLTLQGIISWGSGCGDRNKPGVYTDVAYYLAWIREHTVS

[4] = target: T3, Polyadenylate-binding protein 1 (Homo sapiens, UniProt P11940); assay: PABP1 MLLE–PAM2 interaction inhibitors, dose response, miRNA deadenylation inhibitor project, biochemical, fluorescence polarization, Cy5-PAM2 peptide, secondary (AID 602260); format: functional; conditions: read-out: IC50_Mean
T3 sequence (P11940 whole entry): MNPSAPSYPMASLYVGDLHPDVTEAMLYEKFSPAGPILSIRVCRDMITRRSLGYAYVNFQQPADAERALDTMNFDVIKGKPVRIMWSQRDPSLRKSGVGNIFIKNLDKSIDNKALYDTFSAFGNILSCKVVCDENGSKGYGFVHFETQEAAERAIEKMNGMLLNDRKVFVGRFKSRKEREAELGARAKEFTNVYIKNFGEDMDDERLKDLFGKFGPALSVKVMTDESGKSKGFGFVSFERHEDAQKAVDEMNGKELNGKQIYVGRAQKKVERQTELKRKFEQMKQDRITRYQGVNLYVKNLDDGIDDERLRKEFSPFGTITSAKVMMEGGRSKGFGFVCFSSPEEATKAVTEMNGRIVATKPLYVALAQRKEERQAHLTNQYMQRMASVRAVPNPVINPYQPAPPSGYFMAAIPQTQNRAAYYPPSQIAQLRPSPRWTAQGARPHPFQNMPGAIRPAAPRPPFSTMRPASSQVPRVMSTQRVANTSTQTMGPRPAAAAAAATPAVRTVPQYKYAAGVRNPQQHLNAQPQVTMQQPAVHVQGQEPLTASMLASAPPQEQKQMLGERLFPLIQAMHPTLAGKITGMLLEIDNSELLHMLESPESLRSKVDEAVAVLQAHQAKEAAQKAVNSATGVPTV

[5] = target: T3, Polyadenylate-binding protein 1; assay: PABP1 MLLE–PAM2 binding inhibitor potency, dose response, biochemical, fluorescence polarization, FITC-PAM2 peptide (AID 602259); format: functional; conditions: read-out: IC50_Mean
[6] = off-target signal loss in HeLa-CEM21 co-culture – HeLa F-luc CTL cells, cherry-picked, counter-screen for HIV-1 Env fusion inhibitor project, dose response (AID 652040); format: functional, cell-based;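 also: potency for signal decrease marking cytotoxic or nonspecific inhibition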
[7] = inhibitors of clade B AD8 Env fusion, dose response, cell-based, cherry-pick (AID 652062); format: functional;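 also: luciferase signal from cell-cell fusion driven by HIV-1 clade B AD8 Env; potency is for inhibitors of fusion seen as a drop in luminescence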
[8] = target: T4, Short transient receptor potential channel 4 (Mus musculus, UniProt Q9QUQ5); assay: mouse TRPC4 channel activators, dose response, cell-based, HEK293 TRPC4/mu-opioid, Fluo-4 calcium (AID 434937); format: functional
T4 sequence (Q9QUQ5 whole entry): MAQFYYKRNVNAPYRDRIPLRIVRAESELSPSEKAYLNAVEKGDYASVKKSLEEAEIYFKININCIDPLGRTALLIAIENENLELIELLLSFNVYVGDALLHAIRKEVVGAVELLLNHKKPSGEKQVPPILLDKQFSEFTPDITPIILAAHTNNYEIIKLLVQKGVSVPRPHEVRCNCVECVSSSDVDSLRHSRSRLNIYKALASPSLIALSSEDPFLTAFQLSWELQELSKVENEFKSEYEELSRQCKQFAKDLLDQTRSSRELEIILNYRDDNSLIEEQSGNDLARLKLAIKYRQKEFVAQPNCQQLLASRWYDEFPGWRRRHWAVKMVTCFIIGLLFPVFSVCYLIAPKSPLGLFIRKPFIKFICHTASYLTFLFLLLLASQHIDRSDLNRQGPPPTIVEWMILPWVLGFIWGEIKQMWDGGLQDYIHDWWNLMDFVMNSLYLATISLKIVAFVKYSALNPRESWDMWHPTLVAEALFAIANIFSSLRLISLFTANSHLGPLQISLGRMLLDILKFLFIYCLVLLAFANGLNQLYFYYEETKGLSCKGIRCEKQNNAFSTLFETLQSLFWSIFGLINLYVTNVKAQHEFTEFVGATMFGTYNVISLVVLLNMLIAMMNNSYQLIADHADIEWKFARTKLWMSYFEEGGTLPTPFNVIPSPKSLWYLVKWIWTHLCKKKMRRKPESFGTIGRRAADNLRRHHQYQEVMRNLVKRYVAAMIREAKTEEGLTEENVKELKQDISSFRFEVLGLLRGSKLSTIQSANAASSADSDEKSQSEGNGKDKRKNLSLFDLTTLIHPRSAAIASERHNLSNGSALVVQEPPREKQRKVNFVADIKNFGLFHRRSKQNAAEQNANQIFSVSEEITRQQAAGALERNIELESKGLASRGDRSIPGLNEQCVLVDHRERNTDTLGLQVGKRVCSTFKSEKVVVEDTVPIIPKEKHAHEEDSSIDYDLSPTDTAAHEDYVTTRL

[9] = target: T5, Heat shock factor protein 1 (Mus musculus, UniProt P38532); assay: HSF1 potentiators in luciferase reporter cells, confirmation, cell-based, NIH3T3, luminescence, dose retest (AID 435004); format: functional;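 also: stress induced by proteasome inhibitor MG132 added 30 min after compound; luciferase reporter driven by HSF1 response element in NIH3T3 cells; actives raise luminescence as potentiators of the MG132 stress response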
T5 sequence (P38532 whole entry): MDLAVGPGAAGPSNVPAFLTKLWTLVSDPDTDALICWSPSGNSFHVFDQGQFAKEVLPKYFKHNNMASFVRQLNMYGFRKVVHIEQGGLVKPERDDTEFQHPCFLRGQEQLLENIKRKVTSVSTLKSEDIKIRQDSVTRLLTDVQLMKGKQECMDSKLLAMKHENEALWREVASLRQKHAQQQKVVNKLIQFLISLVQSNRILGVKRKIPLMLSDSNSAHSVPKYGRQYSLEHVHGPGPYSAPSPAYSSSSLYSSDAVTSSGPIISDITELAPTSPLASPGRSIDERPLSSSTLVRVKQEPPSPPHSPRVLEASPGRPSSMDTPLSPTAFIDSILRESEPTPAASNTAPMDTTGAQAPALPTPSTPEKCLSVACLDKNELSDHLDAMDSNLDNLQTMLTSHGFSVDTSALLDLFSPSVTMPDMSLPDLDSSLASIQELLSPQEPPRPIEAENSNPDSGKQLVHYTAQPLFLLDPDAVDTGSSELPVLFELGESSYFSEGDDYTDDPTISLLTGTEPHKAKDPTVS

SMILES: COCCNC(=O)C(=O)NCC1OCCN1S(=O)(=O)c1cc(F)ccc1F (stereo not drawn)
EC50 (cells [2]): > 350 µM (not active)
EC50 (cells [3]): > 350 µM (not active)

SMILES: CC1CN(S(=O)(=O)c2cccc(C(=O)N(CCc3ccccc3)Cc3ccccc3)c2)CC(C)O1 (stereo not drawn)
EC50 (cells [2]): > 350 µM (not active)
EC50 (cells [3]): > 350 µM (not active)

SMILES: CC12CC3(C)CC(C)(C1)CC(C(=O)NCCc1ccc(S(N)(=O)=O)cc1)(C2)C3
EC50 (cells [2]): > 350 µM (not active)
EC50 (cells [3]): > 350 µM (not active)

SMILES: CC(=O)Nc1ccc(SCC(=O)NC(=O)c2ccccc2Br)cc1
IC50 [4]: > 66 µM (inactive)
IC50 [5]: > 66 µM (inactive)

SMILES: Cc1ccc2oc(NC(=O)N3CCOCC3)cc(=O)c2c1
IC50 (Coagulation factor XII): > 50 µM (inactive)

SMILES: Cc1cccc(C)c1NC(=O)CCCSc1nnc(-c2ccc(Cl)cc2)n1-c1ccccc1
AC50 [6]: 48.8 µM (active)
AC50 [7]: 10.5 µM (active)

SMILES: O=S(=O)(NC(=S)NC1CCCCC1)c1cccs1
IC50 [4]: > 66 µM (inactive)
IC50 [5]: > 66 µM (inactive)

SMILES: COc1ccccc1C(N)=S
IC50 [4]: > 66 µM (inactive)
IC50 [5]: > 66 µM (inactive)

SMILES: Cc1ccc(-n2cc(CNC(C)Cc3cnccn3)c(-c3cccc(C)c3)n2)cc1 (stereo not drawn)
EC50 [8]: 5.96 µM (active)

SMILES: Cc1sc(NC(=O)CSc2nnnn2C2CCCC2)c(C#N)c1C
IC50 (Coagulation factor XII): > 50 µM (inactive)

SMILES: Cc1ccc(C2(C)NC(=O)N(CC(=O)Nc3ccccc3N3CCCC3)C2=O)cc1 (stereo not drawn)
EC50 (cells [2]): > 350 µM (not active)
EC50 (cells [3]): > 350 µM (not active)

SMILES: COCc1cc(O)nc(SCCS(=O)(=O)c2ccc(Cl)cc2Cl)n1
EC50 [9]: > 260 µM (inactive)
IC50 [4]: > 66 µM (inactive)
IC50 [5]: > 66 µM (inactive)

Next, values leading:

IC50 [1]: > 20 µM (inactive)
SMILES: c1ccc(C[C@H]2CNCCN2CCC23CC4CC(CC(C4)C2)C3)cc1

IC50 (Coagulation factor XII): > 50 µM (inactive)
SMILES: CC(C)N(Cc1ccccc1)C(S)=NC1CCCCC1

IC50 [1]: > 20 µM (inactive)
SMILES: O=C(CSc1nc2ccsc2c(=O)n1Cc1ccc(C(=O)O)cc1)NCc1ccco1

EC50 [8]: 0.188 µM (active)
SMILES: O=C(C1CCCN(Cc2ccncc2)C1)N1CCc2ccccc2C1 (stereo not drawn)

EC50 [8]: 3.76 µM (active)
SMILES: O=c1c(Cc2ccccc2)c(O)ccn1CCc1c[nH]cn1

EC50 [8]: 0.299 µM (active)
SMILES: CCN1CCN(c2ccc(S(=O)(=O)N3CCOCC3)cc2NC(=O)c2ccccc2OC(F)F)CC1
